From patent US7482468B2, “Imidazole and benzimidazole derivatives useful as histamine H3 antagonists” (Schering Corporation, priority 2005, dated 2009)

Biological target: H3 receptors (Cavia porcellus, UniProt Q9JI35)
Test: biochemical
Experimental: General Procedure for H3-Receptor Binding Assay
The source of the H3 receptors in this experiment was guinea pig brain. The animals weighed 400-600 g. The brain tissue was homogenized with a solution of 50 mM Tris, pH 7.5. The final concentration of tissue in the homogenization buffer was 10% w/v. The homogenates were centrifuged at 1,000×g for 10 min. in order to remove clumps of tissue and debris. The resulting supernatants were then centrifuged at 50,000×g for 20 min. in order to sediment the membranes, which were next washed three times in homogenization buffer (50,000×g for 20 min. each). The membranes were frozen and stored at −70° C. until needed.
All compounds to be tested were dissolved in DMSO and then diluted into the binding buffer (50 mM Tris, pH 7.5) such that the final concentration was 2 μg/ml with 0.1% DMSO. Membranes were then added (400 μg of protein) to the reaction tubes. The reaction was started by the addition of 3 nM [^3H]R-α-methyl histamine (8.8 Ci/mmol) or 3 nM [^3H]N^α-methyl histamine (80 Ci/mmol) and continued under incubation at 30° C. for 30 min. Bound ligand was separated from unbound ligand by filtration, and the amount of radioactive ligand bound to the membranes was quantitated by liquid scintillation spectrometry.

Sequence of H3 receptors (Q9JI35 whole entry): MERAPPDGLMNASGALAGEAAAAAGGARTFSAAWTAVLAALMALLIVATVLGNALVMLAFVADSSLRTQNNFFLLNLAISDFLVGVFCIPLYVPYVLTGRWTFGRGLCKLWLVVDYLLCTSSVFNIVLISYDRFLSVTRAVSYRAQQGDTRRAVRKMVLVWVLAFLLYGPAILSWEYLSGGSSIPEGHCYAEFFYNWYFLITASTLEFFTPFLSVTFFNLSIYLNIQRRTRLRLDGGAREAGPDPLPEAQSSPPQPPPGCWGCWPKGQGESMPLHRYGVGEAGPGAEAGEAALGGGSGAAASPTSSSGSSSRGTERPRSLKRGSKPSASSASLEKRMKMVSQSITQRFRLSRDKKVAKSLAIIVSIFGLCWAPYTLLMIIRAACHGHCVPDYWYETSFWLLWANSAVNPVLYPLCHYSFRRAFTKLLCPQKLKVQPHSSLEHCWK

Ki: 1 nM
Compound: Fc1ccc2c(c1)nc(-c1ccccn1)n2-c1ccc(OCCCN2CCCCC2)cc1 [Example 1EE]
